Source: US5670527A, “Pyridyl imidazole compounds and compositions” (SmithKline Beecham Corporation, priority 1995, dated 1997)

The compounds below were run on human PGHS-2 protein expression in LPS stimulated human monocytes (assay: Prostoglandin endoperoxide synthase-2 (PGHS-2) assay). Conditions: rank order potency similar to that for inhibiting cytokine production.
Type: cell-based
Method: The followiong assay describes a method for determining the inhibitory effects of compounds of Formula (I) on human PGHS-2 protein expression in LPS stimulated human monocytes
Human peripheal blood monocytes were isolated from buffy coats by centrifugation through Ficoll and Percoll gradients. Cells were seeded at 2×10^6 /well in 24 well plates and allowed to adhere for 1 hour in RPMI supplemented with 1% human AB serum, 20 mM L-glutamine, Penicillin-Streptomycin and 10 mM HEPES. Compounds were added at various concentrations and incubated at 37° C. for 10 minutes. LPS was added at 50 ng/well (to induce enzyme expression) and incubated overnight at 37° C. The supernatant was removed and cells washed once in cold PBS. The cells were lysed in 100 μl of cold lysis buffer(50 mM Tris/HCl pH 7.5, 150 mM NaCl, 1% NP40, 0.5% sodium deoxycholate, 0.1% SDS, 300 ug/ml DNAse, 0.1% TRITON X-100, 1 mM PMSF, 1 mM leupeptin, 1 mM pepstatin). The lysate was centrifuged (10;000×g for 10 min. at 4° C.) to remove debris and the soluble fraction was subjected to SDS PAGE. analysis (12% gel). Protein separated on the gel were transferred onto nitrocellulose membrane by electrophoretic means for 2 hours at 60 volts. The membrane was pretreated for one hour in PBS/0.1% Tween 20 with 5% non-fat dry milk. After washing 3 times in PBS/Tween buffer, the membrane was incubated with a 1:2000 dilution of a monospecific antiserum to PGHS-2 or a 1:1000 dilution of an antiserum to PGHs-1 in PBS/Tween with 1% BSA for one hour with continuous shaking. […] The membrane was then washed 3× in PBS/Tween and the ECL immunodetection system (Amersham) was used to detect the level of expression of prostaglandin endoperoxide synthases-2.

| Structure (SMILES) | inhibition of LPS induced PGHS-2 protein expression |
| --- | --- |
| Fc1ccc(-c2nc3n(c2-c2ccncc2)CCS3)cc1 [6-(4-Fluorophenyl)-2,3-dihydro-5-(4-pyridinyl)imidazo [2,1-b]thiazole] | active |
| C[C@@H]1C[C@H]2[C@@H]3CCC4=CC(=O)C=C[C@]4(C)[C@@]3(F)[C@@H](O)C[C@]2(C)[C@@]1(O)C(=O)CO [Dexamethasone] | active |
| Fc1ccc(-c2ncn(CCCN3CCOCC3)c2-c2ccncc2)cc1 [Example 1, 1-[3-(4-Morpholinyl)propyl]-4-(4-fluorophenyl)-5-(4-pyridyl)imidazole] | active |

Same assay, conditions: up to 10 uM

| Structure (SMILES) | inhibition of LPS induced PGHS-2 protein expression |
| --- | --- |
| C[S+]([O-])c1ccc(-c2nc3n(c2-c2ccncc2)CCC3)cc1 (stereo not shown) [2-(4-Methylsulfinylphenyl)-3-(4-pyridyl)-6-7-dihydro-(5H)-pyrrolo[1,2-a]imidazole] | inactive |
| CC(Cc1ccc(O)c(O)c1)C(C)Cc1ccc(O)c(O)c1 (stereo not shown) [NDGA] | inactive |
| O=C1CCN(c2ccccc2)N1 [phenidone] | inactive |
| COc1ccc(C2CNC(=O)C2)cc1OC1CCCC1 (stereo not shown) [rolipram] | inactive |
